We go through eight compounds from patent publication US4151273A, “Increasing the absorption rate of insoluble drugs” (priority 1978, dated 1979).

The term solubility denotes the dissolved amount per volume that the medium holds.

Type in all cases: physicochemical
Data set [1] in a line: Solubility of griseofulvin in water. The following applies: 25° C., read-out: solubility of gris.
A short description of data set [2]: Stability of gris on preparing the solid solutions (melting point, spectra, thin layer chromatography). The following applies: following solvent or direct fusion methods. The text has this:
A number of tests were made to establish that the gris was not decomposed in any manner following either the solvent or the direct fusion methods of preparing the solid solutions. The melting point, the spectra of the ultra-violet, the infrared and fluorescence are all identical to those of the gris used as a starting material.

A short description of data set [3]: Dissolution rate study of griseofulvin compositions (saturation dissolution apparatus). The following applies: for 20% dissolution time: 5 mg gris in 500 ml water at 25°, 100 r.p.m.
Procedure: A recycling and automatic recording system was used for all dissolution rate studies. The dissolution rate of gris in different physical forms were run in 500 ml. distilled water in a 600 ml. beaker at room temperature.
Unless otherwise specified, samples of 80 to 200 mesh powder were transferred directly into the dissolution medium and stirred with a stainless steel paddle. The paddle, 5.5 × 2.7 cm., was placed at the center of a 500 ml. dissolution medium and rotated at a rate of 100 r.p.m. The solution was pumped by a peristatic pump (Multi-speed Transmission, model No. 6000-000, available from the Harvard Apparatus Co., Dover, Mass.) at a rate of 80 to 100 ml./min. through a glass filter stick to a 1-cm. flow cell and then back to the dissolution apparatus. The absorbance of the solution is monitored by a recording Beckman DB spectrophotometer at either the miximum peak of gris, 292 mu., or minimum absorbance, 272 mu. depending upon the concentration of gris. In the system of gris-PEG 20,000, 324 mu. was used because of possible interference of absorption by the polymer at 272 mu. The volume of the solution in the tubing of the recycling system is about 10 ml. At the flow rate used, the monitored absorbance will reach 90% of the equilibrium valve in 15 sec. Therefore, the lag time in the measurement of dissolution rate is essentially negligible. In the study of the dissolution rate at room temperature, the water is preadjusted to 25° C. The ambient temperature of the room ranged less than 2° from this temperature.
Samples of micronized gris and of gris of 100 to 200 mesh particle size distribution were also run. […] All samples were run in duplicate.
^a Five milligrams gris in 500 ml. of water at 25°.
^b Dissolution times taken from recorded absorbance readings.
Data set [4] in a line: Dissolution studies involving other materials (time for 20% dissolution). The following applies: in water. The text has this: Dissolution studies were similarly made involving other materials.

Molecules are shown by their SMILES. ≈ marks a conversion by molar mass, not a printed value. Entries after “also recorded” stand apart in the source; their conditions may differ.

Regarding `COC1=CC(=O)C[C@@H](C)[C@]12Oc1c(Cl)c(OC)cc(OC)c1C2=O` [gris, griseofulvin], the solubility in data set [1] was 10 µg/mL (≈ 28.3 µM). Moreover, in data set [2], the “decomposition of gris (in words)” value is reported as “no additional spots were detected”. Compound `COC1=CC(=O)C[C@@H](C)[C@]12Oc1c(Cl)c(OC)cc(OC)c1C2=O` [100-200 Mesh pure gris, griseofulvin] gave a 20% dissolution time in data set [3] of 60.0 min.

The compound `COC1=CC(=O)C[C@@H](C)[C@]12Oc1c(Cl)c(OC)cc(OC)c1C2=O` [Micronizied gris (nonwetted), griseofulvin] yielded a 20% dissolution time in data set [3] of 25.0 min. For the same compound, the “dissolution rate (in words)” value in data set [3] (compared with other gris forms, wetting with 2 ml of 0.2% polysorbate (Tween 20), micronized gris) is on record as “markedly slower than that of the same powder when wetted first; also recorded: almost the same dissolution rate as the 100-200 mish gris”.

For the compound `C[C@H]1O[C@@H](O[C@H]2[C@@H](O)C[C@H](O[C@H]3[C@@H](O)C[C@H](O[C@H]4CC[C@@]5(C)[C@H](CC[C@@H]6[C@@H]5CC[C@]5(C)[C@@H](C7=CC(=O)OC7)CC[C@]65O)C4)O[C@@H]3C)O[C@@H]2C)C[C@H](O)[C@@H]1O` [microcrystalline digitoxin, digitoxin], the “time to 20% dissolution” value in data set [4] is on record as “about 15 minutes”. Take `COC1=CC(=O)C[C@@H](C)[C@]12Oc1c(Cl)c(OC)cc(OC)c1C2=O` [Micronized gris (wetted), griseofulvin]: in data set [3], the 20% dissolution time was found to be 2.0 min. Regarding `C[C@]12CCC(=O)C=C1CC[C@@H]1[C@@H]2CC[C@@]2(C)[C@H]1CC[C@]2(C)O` [methyltestosterone], the “time to 20% dissolution” value in data set [4] is 2 min. Regarding `CC(=O)OCC(=O)[C@@]1(O)CC[C@H]2[C@@H]3CCC4=CC(=O)C=C[C@]4(C)[C@H]3[C@@H](O)C[C@@]21C` [prednisolone acetate], the “time to 20% dissolution” value in data set [4] was found to be 8 min. `CC(=O)OCC(=O)[C@@]1(O)CC[C@H]2[C@@H]3CCC4=CC(=O)CC[C@]4(C)[C@H]3[C@@H](O)C[C@@]21C` [hydrocortisone acetate]: the “time to 20% dissolution” value in data set [4] is recorded as “more than 20 minutes”.
